Reference: patent US7345088B2, “Pharmaceutical composition for use for the treatment of malignancies comprising in combination a bisphosphonates, a cox-2 inhibitor and a taxol” (Penn State Research Foundation, priority 2001, dated 2008)

Tests used:
Assay type in all cases: cell-based
[1] = system: HER-2/neu transfected human breast cancer cell line (MCF/18); assay: MTT tetrazolium dye assay, cell number after 3-day incubation, MCF/18; conditions: MCF/18 cells
Description: (§1) Methods: The effect of combining the COX-2 inhibitor (SC 236) and zoledronic acid compared to either agent alone was tested in a HER-2/neu transfected human breast cancer cell line (MCF/18) and the control vector transfected line (MCF/neo). Cell number was determined after a 3-day incubation using the MTT tetrazolium dye assay.
as §1, with “(SC236) with” for “(SC 236) and”, “and/or taxotere” for “compared to either agent alone”

[2] = system: DU-145 human prostate carcinoma cell line; assay: MTT tetrazolium dye assay, cell number after 3 day treatment, DU-145; conditions: DU-145 cells
Description: Methods: The effect of combining the COX-2 inhibitor (SC236) and zoledronic acid compared to either agent alone was tested in the DU-145 human prostate carcinoma cell line. Cell number was determined after a 3 day treatment using the MTT tetrazolium dye assay.

[3] = system: control vector transfected human breast cancer cell line (MCF/neo); assay: MTT tetrazolium dye assay, cell number after 3-day incubation, MCF/neo; conditions: MCF/neo cells
Description: as §1
as §1, with “(SC236) with” for “(SC 236) and”, “and/or taxotere” for “compared to either agent alone”

[4] = single agent 1-10 μM, 3-day incubation (Example 19)
[5] = single agent, concentration not given, 3-day incubation (Example 20)

| Structure (SMILES) | growth inhibition [1, 4] | growth inhibition ([2]; 5 μM) [%] | growth inhibition ([2]; 1-25 μM) | growth inhibition [3, 4] | growth inhibition [1, 5] | growth inhibition ([2]; 1-10 μM) | inhibition at 3 µM ([2]; Homo sapiens, 72 h, 3 μM, read-out: growth inhibition) [%] | growth inhibition [3, 5] |
| --- | --- | --- | --- | --- | --- | --- | --- | --- |
| NS(=O)(=O)c1ccc(-n2nc(C(F)(F)F)cc2-c2ccc(Cl)cc2)cc1 [SC236] | 15-41% | 40 | 0-77% | 18-53% | – | – | – | – |
| O=P(O)(O)C(O)(Cn1ccnc1)P(=O)(O)O [zoledronic acid, 2-(imidazol-1yl)-1-hydroxyethane-1,1-diphosphonic acid] | 9-53% | – | – | 8-67% | 9%-53% | 8-70% | 23 | 18%-67% |
